Here are results for four compounds from ChEMBL document CHEMBL1130146, “Fused pyrrolo[2,3-c]carbazol-6-ones: novel immunostimulants that enhance human interferon-gamma activity” (J Med Chem, 1997).

The target in assay [1] is Protein kinase C (PKC). Put plainly: Inhibition of protein kinase C. The assay is classed as protein assay, Rattus norvegicus.
The subject of assay [2] is THP-1. The experiment in a line: Compound (0 uM) was screened for potentiation of IFN-gamma (100 units/mL)-induced expression of HLA-DR in THP-1 cells. The assay is classed as functional, Homo sapiens.
The subject of assay [3] is THP-1. Put plainly: Compound (2 uM) was screened for potentiation of IFN-gamma (100 units/mL)-induced expression of HLA-DR in THP-1 cells. The assay is classed as functional, Homo sapiens.
Assay [4] has as its system THP-1. The experiment in a line: Compound (0 uM) was screened for potentiation of IFN-gamma (0 units/mL)-induced expression of HLA-DR in THP-1 cells. Type of assay: functional, Homo sapiens.
For assay [5], the system named is THP-1. The experiment in a line: Compound (2 uM) was screened for potentiation of IFN-gamma (0 units/mL)-induced expression of HLA-DR in THP-1 cells. The assay is classed as functional, Homo sapiens.

As a reminder, the IC50 is the concentration that gives 50% inhibition.

Each structure is given as a SMILES string.

`O=C1Cc2c(c3c4ccccc4[nH]c3c3[nH]c4ccccc4c23)N1`: the IC50 in assay [1] was > 10 µM. Besides, the Enhancement was determined as 100% in assay [2], 130% in assay [3], 0% in assay [4] and 0% in assay [5].
Take `O=C1Cc2c(c3c4ccccc4sc3c3[nH]c4ccccc4c23)N1`: in assay [1], the half-maximal inhibitory concentration (IC50) is > 10 µM. Also, the Enhancement in assay [2] was 100%; in assay [3], 153%; in assay [4], 0%; in assay [5] it was 0%.
For the compound `O=C1Cc2c(c3c4ccccc4oc3c3[nH]c4ccccc4c23)N1`, the half-inhibitory concentration (IC50) in assay [1] is > 10 µM. Besides, the Enhancement turned out to be 100% in assay [2], 108% in assay [3], 0% in assay [4] and 0% in assay [5].
Turning to `O=C1Cc2c(c3c(c4[nH]c5ccccc5c24)Cc2ccccc2-3)N1`, in assay [1], the half-maximal inhibitory concentration (IC50) is > 10 µM. For the same compound, the Enhancement in assay [2] amounted to 100%; in assay [3] it was 160%; in assay [4], 0%; in assay [5] it was 0%.
